Data from patent US20090176755A1, “PHARMACEUTICAL COMPOSITIONS COMPRISING AN ANTIBIOTIC” (priority 2005, published 2009).

Experiment: Exposure of form B crystals to high relative humidity or water (polymorphic transformation)
Type: physicochemical
Excerpt: Usually minutes of exposure to high humidity and seconds of exposure to water, such as within an suspension, are sufficient for this transformation. Such conditions are for example found during pharmaceutical production in countries with a humid climate.

exposure time sufficient for transformation into a different polymorphic form (exposure to high humidity): minutes | exposure time sufficient for transformation into a different polymorphic form (exposure to water, such as within a suspension): seconds | relative humidity at which form B transforms into a different polymorphic form with reduced stability (form B crystals exposed to humid conditions): higher than 65%
SMILES: C=CC1=C(C(=O)O)N2C(=O)C(NC(=O)C(=NO)c3csc(N)n3)[C@H]2SC1 (stereo partly drawn) [crystalline form B of cefdinir, 7-[2-(2-aminothiazol-4-yl)-2-hydroxyiminoacetamido]-3-vinyl-3-cephem-4-carboxylic acid]
